Source: US20100297042A1, “Cosmetic Compositions and Methods Comprising Rhodiola Rosea” (priority 2004, published 2010)

Test system: living skin equivalents (LSE)
Assay: TT dimer immunostaining (DNA damage/repair) in UVB-irradiated living skin equivalents
Type: cell-based
Conditions: pre-treated 0.01% (PBS) 18 hours; 24 hours after 175 mJ of UVB
Method: Excised portions (8 mm) are taken from living skin equivalents (LSE) and cultured over transwell membrane plates. These excised portions are pre-treated with rosavin or salidroside at 0.01% (PBS) for 18 hours. After the […], these excised portions are UVB-irradiated at 0 and 175 mJ/cm^2. One set of LSEs is immediately fixed in formalin to determine TT dimer formation (DNA damage). Following a 24-hour post-incubation, another set of skin equivalents is fixed in formalin. These samples are then prepared for TT dimer immunostaining. Sections are then evaluated using a microscope at 400× magnification. A section is selected from each sample and TT dimer containing cells are evaluated. DNA damage is measured by examining TT dimer stained cells immediately after UVB irradiation. DNA repair (TT dimer removal) in UVB-irradiated LSEs is determined by comparing the levels of TT dimer at 0 hr (immediately after UVB) with the levels of TT dimer at 24 hours (24 hours after UVB).

| SMILES | TT dimer levels [%] |
| --- | --- |
| O[C@@H]1[C@@H](O)[C@@H](OC/C=C/c2ccccc2)O[C@H](CO[C@@H]2OC[C@H](O)[C@H](O)[C@H]2O)[C@H]1O [rosavin, cinnamyl alcohol vicyanoside rosavin] | 7 |
| OC[C@H]1O[C@@H](OCCc2ccc(O)cc2)[C@H](O)[C@@H](O)[C@@H]1O [salidroside, hydroxyphenylethanol-2-D-glucopyranoside] | 12 |
